Results as given in patent US8466193B2, “Selective inhibitors of histone deacetylase” (Pharmacyclics, Inc., priority 2008, dated 2013).

Experiments:
Jurkat cells = assay: Cell proliferation assay, growth inhibition by Alamar Blue; assay type: cell-based; conditions: Homo sapiens, 72 h, Jurkat cells treated with compound for 3 days
Protocol: Cell lines were obtained from DSMZ (Braunschweig, Germany) or ATCC (Manassas, Va.). Cells were grown in RPMI 1640 with 10% fetal bovine serum in a 5% CO2/air incubator at 37° C. Thapsigargin and BAPTA-AM were from Calbiochem (San Diego, Calif.). 3-((dimethylamino)methyl)-N-(2-(4-(hydroxycarbamoyl)phenoxy)ethyl)benzofuran-2-carboxamide is a broad-spectrum HDAC inhibitor which was synthesized as previously described. Other analogs with varying degrees of specificity towards the HDAC isoforms were synthesized as described herein.
Tumor cell lines and human umbilical vein endothelial cells (HUVEC) were cultured for at least two doubling times, and growth was monitored at the end of compound exposure using an Alamar Blue™ (Biosource, Camarillo, Calif.) fluorometric cell proliferation assay as recommended by the manufacturer. Compounds were assayed in triplicate wells in 96-well plates. The concentration required to inhibit cell growth by 50% (GI50) and 95% confidence intervals were estimated from nonlinear regression using a 4-parameter logistic equation. The effect of HDAC8 selective inhibitor compounds on cell proliferation in Jurkat cells was measured. Apoptosis was measured by Annexin-V flow cytommetry. Growth inhibition was measured by Alamar Blue assay. Cells were treated with compound for 3 days.

[1] = Pharmacokinetic analysis in male rats, oral gavage; assay type: in vivo; conditions: CD IGS (Sprague-Dawley derived), rat, plasma, orally at 3 mg/kg, compounds administered in combination
Protocol: This study, performed in male rats with test compounds (Compound 303 and Compound 316), was designed to provide preliminary information on their pharmacokinetics. The test compounds were administered in combination by oral gavage.
The specifications for rats used on this study are as follows: • Strain: CD® IGS rats (Sprague-Dawley derived) • Source: Charles River Laboratories • Surgical modification for oral dosing: One portal vein cannula and one jugular vein cannula • Body weight range at dosing 350 to 375 g
The rats were acclimatized to laboratory conditions for at least 24 hours before dosing. The evening before dosing, food was withheld from the rats and was returned immediately following the 3-hour blood collection time point. Water was provided ad libitum. The rats were housed individually in translucent polycarbonate cages.
Test compounds were prepared as 3.0 mg/ml solutions (1% MC/0.4% Cr EL in WFI).
Rats were administered a single dose of test compound in combination by oral gavage. Dose volumes were adjusted based on body weight data collected immediately prior to dosing.
The dose volume was 1 ml/kg and the nominal dosage was 3 mg/kg.
Blood samples were collected at 5 minutes, 20 minutes, 1 hour, 3 hours, 6 hours, 9 hours, and 24 hours post-dosing from orally dosed rats. The samples were collected into plasma separator Microtainer tubes with anticoagulant (lithium heparin). Plasma samples were prepared by centrifugation (5 min at 5000×g), and at least 100 μL were transferred to storage tubes and frozen on dry ice. Samples were maintained at approximately −75 C until prepared for analysis.
Plasma samples were thawed and 75 uL aliquots were transferred to centrifuge tubes to which 10 μL aliquots of internal standard solution (0.5 μg/mL) were added. The samples were not diluted with blank plasma prior to further processing. Soluble proteins were precipitated by the addition of 300 μL of methanol, followed by centrifugation (20 min at 16,000×g). The samples were evaporated to dryness and reconstituted in 100 μL of water containing 0.2% formic acid and 10% methanol. All samples were loaded onto an autosampler maintained at 6° C. and evaluated for concentrations of test compound using LC-MS/MS. lasma concentration data were evaluated using the computer program WinNonlin (Professional Edition, Pharsight Corporation, version 5.01). […]
Pan HDAC inhibitor 3-((dimethylamino)methyl)-N-(2-(4-(hydroxycarbamoyl)phenoxy)ethyl)benzofuran-2-carboxamide was added to the cassette to serve as a standard since the pharmacokinetics of this compound have been determined previously in rats. The UC's determined for rats administered Compound 303 and Compound 316 orally at 3 mg/kg were 1.42, and 5.36 μg·h/mL, respectively. […]

HDAC8 = target: T1, HDAC8 (Homo sapiens, UniProt Q9BY41); assay: Histone deacetylase activity, continuous trypsin-coupled assay; assay type: biochemical; conditions: 15 minutes preincubation; substrate acetyl-Gly-Ala-(N-acetyl-Lys)-AMC
T1 sequence (Q9BY41 1-377): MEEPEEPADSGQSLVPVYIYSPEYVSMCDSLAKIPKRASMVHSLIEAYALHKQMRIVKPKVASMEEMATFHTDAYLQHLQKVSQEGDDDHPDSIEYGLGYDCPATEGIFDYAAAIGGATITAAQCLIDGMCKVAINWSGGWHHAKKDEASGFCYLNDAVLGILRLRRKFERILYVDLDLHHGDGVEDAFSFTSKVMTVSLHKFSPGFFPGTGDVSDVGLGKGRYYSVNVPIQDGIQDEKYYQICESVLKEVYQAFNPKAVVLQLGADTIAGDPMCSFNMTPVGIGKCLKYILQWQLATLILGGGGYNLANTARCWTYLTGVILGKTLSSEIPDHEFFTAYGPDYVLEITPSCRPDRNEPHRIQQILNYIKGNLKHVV
Protocol: (§1) HDAC activity was measured using a continuous trypsin-coupled assay that has been described in detail previously (US 20070281934; Schultz et. al., Biochemistry, 43 (34), 11083-11091, 2004; Kim et al. (2006), Methods Mol. Biol., 325:273-283). For inhibitor characterization, measurements were performed in a reaction volume of 100 μL using 96-well assay plates in a fluorescence plate reader. For each isozyme, the HDAC protein in reaction buffer (50 mM HEPES, 100 mM KCl, 0.001% Tween-20, 5% DMSO, pH 7.4, supplemented with bovine serum albumin at concentrations of 0-0.05%, was mixed with inhibitor at various concentrations and allowed to incubate for 15 minutes. Trypsin was added to a final concentration of 50 nM, and acetyl-Gly-Ala-(N-acetyl-Lys)-AMC was added to a final concentration of 25-100 μM to initiate the reaction. After a 30 minute lag time, the fluorescence was measured over a 30 minute time frame using an excitation wavelength of 355 nm and a detection wavelength of 460 nm. The increase in fluorescence with time was used as the measure of the reaction rate. Inhibition constants Ki(app) were obtained using the program BatchKi (Biokin, Pullman, Wash.).

HDAC6 = target: T2, HDAC6 (Homo sapiens, UniProt Q9UBN7); assay: as above; assay type: biochemical; conditions: 15 minutes preincubation; substrate acetyl-Gly-Ala-(N-acetyl-Lys)-AMC
T2 sequence (Q9UBN7 1-1215): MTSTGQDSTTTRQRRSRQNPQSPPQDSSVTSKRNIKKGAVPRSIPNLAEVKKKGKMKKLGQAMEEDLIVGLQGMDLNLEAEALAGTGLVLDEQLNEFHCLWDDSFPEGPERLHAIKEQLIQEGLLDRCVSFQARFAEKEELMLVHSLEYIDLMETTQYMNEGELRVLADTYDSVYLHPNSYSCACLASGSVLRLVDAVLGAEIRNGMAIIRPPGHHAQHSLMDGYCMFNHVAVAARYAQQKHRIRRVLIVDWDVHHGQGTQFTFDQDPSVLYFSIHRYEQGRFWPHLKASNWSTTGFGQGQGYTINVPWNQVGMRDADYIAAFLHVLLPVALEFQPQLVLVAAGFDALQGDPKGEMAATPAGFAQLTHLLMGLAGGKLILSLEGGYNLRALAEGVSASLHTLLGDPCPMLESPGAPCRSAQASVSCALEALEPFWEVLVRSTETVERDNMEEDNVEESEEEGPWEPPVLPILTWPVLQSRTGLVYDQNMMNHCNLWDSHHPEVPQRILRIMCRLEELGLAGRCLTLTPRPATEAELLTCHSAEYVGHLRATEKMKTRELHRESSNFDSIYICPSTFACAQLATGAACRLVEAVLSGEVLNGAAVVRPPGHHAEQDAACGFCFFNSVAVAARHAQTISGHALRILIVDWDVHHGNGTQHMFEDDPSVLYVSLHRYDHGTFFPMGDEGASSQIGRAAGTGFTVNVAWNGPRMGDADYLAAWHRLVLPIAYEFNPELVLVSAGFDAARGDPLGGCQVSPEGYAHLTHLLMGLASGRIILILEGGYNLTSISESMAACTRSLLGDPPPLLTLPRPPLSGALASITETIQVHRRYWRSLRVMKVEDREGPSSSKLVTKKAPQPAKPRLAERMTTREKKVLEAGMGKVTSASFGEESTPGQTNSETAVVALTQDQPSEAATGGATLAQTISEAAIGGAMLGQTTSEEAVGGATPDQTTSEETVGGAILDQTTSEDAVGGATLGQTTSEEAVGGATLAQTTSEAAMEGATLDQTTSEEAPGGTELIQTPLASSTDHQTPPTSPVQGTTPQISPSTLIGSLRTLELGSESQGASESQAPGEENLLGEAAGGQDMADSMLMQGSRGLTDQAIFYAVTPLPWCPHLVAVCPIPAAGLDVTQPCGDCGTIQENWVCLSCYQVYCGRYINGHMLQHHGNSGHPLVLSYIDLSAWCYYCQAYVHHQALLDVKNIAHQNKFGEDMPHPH
Protocol: as §1

HDAC1 = HDAC1 (Homo sapiens, UniProt Q13547); assay: as above; assay type: biochemical; conditions: 15 minutes preincubation; substrate acetyl-Gly-Ala-(N-acetyl-Lys)-AMC
Chain of HDAC1 (Q13547 whole entry, species assumed): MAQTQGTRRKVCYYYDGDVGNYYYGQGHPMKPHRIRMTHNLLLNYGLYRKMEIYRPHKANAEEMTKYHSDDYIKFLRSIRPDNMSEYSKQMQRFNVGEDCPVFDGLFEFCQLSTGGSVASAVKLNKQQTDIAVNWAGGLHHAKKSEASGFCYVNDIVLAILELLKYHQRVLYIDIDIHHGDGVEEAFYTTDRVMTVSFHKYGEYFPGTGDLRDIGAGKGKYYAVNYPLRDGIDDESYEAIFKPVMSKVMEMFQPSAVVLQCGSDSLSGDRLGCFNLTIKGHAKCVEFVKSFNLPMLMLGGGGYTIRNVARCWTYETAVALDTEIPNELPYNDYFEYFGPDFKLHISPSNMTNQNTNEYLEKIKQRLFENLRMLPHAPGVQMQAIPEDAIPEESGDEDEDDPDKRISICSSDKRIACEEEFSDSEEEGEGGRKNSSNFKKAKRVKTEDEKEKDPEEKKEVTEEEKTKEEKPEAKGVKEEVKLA
Protocol: as §1

HDAC10 = target: T3, HDAC10 (Homo sapiens, UniProt Q969S8); assay: as above; assay type: biochemical; conditions: 15 minutes preincubation; substrate acetyl-Gly-Ala-(N-acetyl-Lys)-AMC
T3 sequence (Q969S8 1-669): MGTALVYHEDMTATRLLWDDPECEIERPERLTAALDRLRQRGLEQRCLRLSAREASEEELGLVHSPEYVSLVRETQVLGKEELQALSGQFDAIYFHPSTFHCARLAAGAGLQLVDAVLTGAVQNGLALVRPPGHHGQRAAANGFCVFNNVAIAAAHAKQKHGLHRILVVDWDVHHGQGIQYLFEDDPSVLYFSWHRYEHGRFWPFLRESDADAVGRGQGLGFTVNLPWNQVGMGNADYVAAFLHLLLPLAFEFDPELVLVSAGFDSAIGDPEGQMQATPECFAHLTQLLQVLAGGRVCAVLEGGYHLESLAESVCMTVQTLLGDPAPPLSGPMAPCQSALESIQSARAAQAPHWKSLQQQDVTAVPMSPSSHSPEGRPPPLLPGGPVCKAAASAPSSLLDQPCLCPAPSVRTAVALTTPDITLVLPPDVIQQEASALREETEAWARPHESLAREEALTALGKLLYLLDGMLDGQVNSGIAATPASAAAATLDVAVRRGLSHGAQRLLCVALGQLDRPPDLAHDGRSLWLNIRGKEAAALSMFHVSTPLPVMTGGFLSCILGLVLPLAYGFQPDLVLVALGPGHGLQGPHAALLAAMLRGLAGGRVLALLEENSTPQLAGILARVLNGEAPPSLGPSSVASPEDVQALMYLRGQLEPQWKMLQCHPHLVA
Protocol: as §1

HDAC2 = HDAC2 (Homo sapiens, UniProt Q92769); assay: as above; assay type: biochemical; conditions: 15 minutes preincubation; substrate acetyl-Gly-Ala-(N-acetyl-Lys)-AMC
Chain of HDAC2 (Q92769 whole entry, species assumed): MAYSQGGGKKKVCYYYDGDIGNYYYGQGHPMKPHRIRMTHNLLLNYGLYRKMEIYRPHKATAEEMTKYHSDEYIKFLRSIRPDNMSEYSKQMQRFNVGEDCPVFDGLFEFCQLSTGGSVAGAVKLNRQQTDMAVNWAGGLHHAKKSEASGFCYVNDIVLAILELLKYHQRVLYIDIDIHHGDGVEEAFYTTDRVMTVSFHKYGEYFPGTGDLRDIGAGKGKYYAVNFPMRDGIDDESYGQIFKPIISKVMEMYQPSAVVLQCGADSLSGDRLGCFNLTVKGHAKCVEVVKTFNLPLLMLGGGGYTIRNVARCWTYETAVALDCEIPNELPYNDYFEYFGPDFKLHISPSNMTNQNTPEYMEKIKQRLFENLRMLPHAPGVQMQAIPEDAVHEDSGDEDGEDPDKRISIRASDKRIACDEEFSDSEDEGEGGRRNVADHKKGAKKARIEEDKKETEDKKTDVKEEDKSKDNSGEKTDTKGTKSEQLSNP
Protocol: as §1

HDAC3 = HDAC3 (Homo sapiens, UniProt O15379); assay: as above; assay type: biochemical; conditions: 15 minutes preincubation; substrate acetyl-Gly-Ala-(N-acetyl-Lys)-AMC
Chain of HDAC3 (O15379 whole entry, species assumed): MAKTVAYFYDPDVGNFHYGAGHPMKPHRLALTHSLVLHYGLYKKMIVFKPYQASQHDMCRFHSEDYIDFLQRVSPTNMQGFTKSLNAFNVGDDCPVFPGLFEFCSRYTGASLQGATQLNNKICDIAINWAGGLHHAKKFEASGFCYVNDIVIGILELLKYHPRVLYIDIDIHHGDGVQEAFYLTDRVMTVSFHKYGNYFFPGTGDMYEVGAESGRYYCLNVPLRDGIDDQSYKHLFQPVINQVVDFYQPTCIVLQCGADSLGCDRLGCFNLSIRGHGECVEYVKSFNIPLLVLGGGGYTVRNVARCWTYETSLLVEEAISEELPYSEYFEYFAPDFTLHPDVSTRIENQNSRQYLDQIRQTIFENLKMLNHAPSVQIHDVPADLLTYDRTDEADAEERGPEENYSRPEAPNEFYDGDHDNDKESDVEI
Chain of HDAC3 (Q9Y618 395-489 partner limits assumed, species assumed): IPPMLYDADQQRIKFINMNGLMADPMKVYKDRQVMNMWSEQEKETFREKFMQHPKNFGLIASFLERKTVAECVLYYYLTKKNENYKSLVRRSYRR
Protocol: as §1

Row | GI50 (Jurkat cells) [µM] | AUC [1] [ng·h/mL] | Cmax [1] [ng/mL] | IC50 (HDAC8) [µM] | IC50 (HDAC6) [µM] | IC50 (HDAC1) [µM] | IC50 (HDAC10) [µM] | IC50 (HDAC2) [µM] | IC50 (HDAC3) [µM] | SMILES
1 | 7.4 | – | – | < 1 | 1 to 10 | > 10 | > 10 | > 10 | > 10 | CN(C)Cc1cccc(OCCn2ccc3ccc(C(=O)NO)cc32)c1 [Compound 324, N-hydroxy-1-(2-(3-(dimethylaminomethyl)phenoxy)ethyl)-1H-indole-6-carboxamide]
2 | 13.4 | – | – | < 1 | 1 to 10 | > 10 | > 10 | > 10 | > 10 | CN(C)Cc1ccc(OCCn2ccc3ccc(C(=O)NO)cc32)cc1 [Compound 325, N-hydroxy-1-(2-(4-(dimethylaminomethyl)phenoxy)ethyl)-1H-indole-6-carboxamide]

Further lines, the compound ahead of its results:

Row | SMILES | GI50 (Jurkat cells) [µM] | AUC [1] [ng·h/mL] | Cmax [1] [ng/mL] | IC50 (HDAC8) [µM] | IC50 (HDAC6) [µM] | IC50 (HDAC1) [µM] | IC50 (HDAC10) [µM] | IC50 (HDAC2) [µM] | IC50 (HDAC3) [µM]
3 | O=C(NO)c1ccc2ccn(CCCc3ccccc3)c2c1 [Compound 303, N-hydroxy-1-(3-phenyl-propyl)-1H-indole-6-carboxamide] | 3.5 | 1420 | 310 | – | – | – | – | – | –
4 | O=C(NO)c1ccc2ccn(CCOc3cccc(CN4CCOCC4)c3)c2c1 [Compound 327, N-hydroxy-1-(2-(3-(morpholin-4-ylmethyl)phenoxy)ethyl)-1H-indole-6-carboxamide] | 4.95 | – | – | < 1 | 1 to 10 | > 10 | > 10 | > 10 | > 10
5 | O=C(Cn1ccc2ccc(C(=O)NO)cc21)Nc1ccccc1 [Compound 329, N-hydroxy-1-(2-oxo-2-(phenylamino)ethyl)-1H-indole-6-carboxamide] | 20.7 | – | – | < 1 | > 10 | > 10 | > 10 | > 10 | > 10
